Test system: Endogenous Huntingtin Protein
Assay: Endogenous Huntingtin Protein Assay (Meso Scale Discovery ELISA-based electrochemiluminescence)
Type: cell-based
Conditions: MSD plates coated with MW1 (expanded polyglutamine) or MAB2166 capture antibody; lysates
Summary of the method: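 MSD electrochemiluminescence sandwich ELISA: MW1 (expanded polyQ) or MAB2166 capture antibody at 1 μg/mL, samples incubated overnight at 4° C. Detection with rabbit monoclonal #5656S then SULFO-TAG anti-rabbit antibody, each 0.25 μg/mL for 1 h at room temperature.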

Row | SMILES | IC50 [µM]
1 | CC1(C)C[C@H](n2nnc3cc(-c4ccc(-c5cn[nH]c5)cc4O)nnc32)[C@H](F)C(C)(C)N1 [Cpd 164, 2-{3-[(3S,4S)-3-fluoro-2,2,6,6-tetramethylpiperidin-4-yl]-3H-[1,2,3]triazolo[4,5-c]pyridazin-6-yl}-5-(1H-pyrazol-4-yl)phenol] | ≤ 0.1
2 | CC1(C)CC(n2ncc3cc(-c4ccc(-c5ccncc5)cc4O)nnc32)CC(C)(C)N1 [Cpd 165, 5-(pyridin-4-yl)-2-[1-(2,2,6,6-tetramethylpiperidin-4-yl)-1H-pyrazolo[3,4-c]pyridazin-5-yl]phenol] | ≤ 0.1
3 | CC1(C)CC(n2ncc3cc(-c4ccc(-c5cccnc5)cc4O)nnc32)CC(C)(C)N1 [Cpd 166, 5-(pyridin-3-yl)-2-[1-(2,2,6,6-tetramethylpiperidin-4-yl)-1H-pyrazolo[3,4-c]pyridazin-5-yl]phenol] | 0.1 to 0.5
4 | CC1(C)C[C@@H](n2nnc3cc(-c4ccc(-c5cn[nH]c5)cc4O)nnc32)[C@H](F)C(C)(C)N1 [Cpd 168, 2-{3-[(3S,4R)-3-fluoro-2,2,6,6-tetramethylpiperidin-4-yl]-3H-[1,2,3]triazolo[4,5-c]pyridazin-6-yl}-5-(1H-pyrazol-4-yl)phenol] | ≤ 0.1
5 | CC(C)(C)NC1CC(n2nnc3cc(-c4ccc(-c5cn[nH]c5)cc4O)nnc32)C1 (stereo not drawn) [Cpd 170, 2-{3-[3-(tert-butylamino)cyclobutyl]-3H-[1,2,3]triazolo[4,5-c]pyridazin-6-yl}-5-(1H-pyrazol-4-yl)phenol] | 1 to 3
6 | Cn1ccc(-c2ccc(-c3cc4nnn([C@H]5CC(C)(C)NC(C)(C)[C@H]5F)c4nn3)c(O)c2)cc1=O [Cpd 171, 4-(4-{3-[(3S,4S)-3-fluoro-2,2,6,6-tetramethylpiperidin-4-yl]-3H-[1,2,3]triazolo[4,5-c]pyridazin-6-yl}-3-hydroxyphenyl)-1-methylpyridin-2(1H)-one] | 0.1 to 0.5
7 | Cn1cnc(-c2ccc(-c3cc4nnn([C@H]5CC(C)(C)NC(C)(C)[C@H]5F)c4nn3)c(O)c2)cc1=O [Cpd 172, 6-(4-{3-[(3S,4S)-3-fluoro-2,2,6,6-tetramethylpiperidin-4-yl]-3H-[1,2,3]triazolo[4,5-c]pyridazin-6-yl}-3-hydroxyphenyl)-3-methylpyrimidin-4(3H)-one] | 0.1 to 0.5
8 | CC1(C)C[C@H](n2nnc3cc(-c4ccc(-c5c[nH]nc5F)cc4O)nnc32)[C@H](F)C(C)(C)N1 [Cpd 173, 5-(3-fluoro-1H-pyrazol-4-yl)-2-{3-[(3S,4S)-3-fluoro-2,2,6,6-tetramethylpiperidin-4-yl]-3H-[1,2,3]triazolo[4,5-c]pyridazin-6-yl}phenol] | ≤ 0.1
9 | CC1(C)CC(n2ncc3cc(-c4ccc(-n5nccn5)cc4O)nnc32)CC(C)(C)N1 [Cpd 174, 2-[1-(2,2,6,6-tetramethylpiperidin-4-yl)-1H-pyrazolo[3,4-c]pyridazin-5-yl]-5-(2H-1,2,3-triazol-2-yl)phenol] | ≤ 0.1
10 | CC(C)(C)NC1CCC(n2nnc3cc(-c4ccc(-c5cn[nH]c5)cc4O)nnc32)C1 (stereo not drawn) [Cpd 175, 2-{3-[3-(tert-butylamino)cyclopentyl]-3H-[1,2,3]triazolo[4,5-c]pyridazin-6-yl}-5-(1H-pyrazol-4-yl)phenol] | 0.5 to 1
11 | CC1(C)CC(n2ccc3cc(-c4ccc(-n5nccn5)cc4O)nnc32)CC(C)(C)N1 [Cpd 176, 2-[7-(2,2,6,6-tetramethylpiperidin-4-yl)-7H-pyrrolo[2,3-c]pyridazin-3-yl]-5-(2H-1,2,3-triazol-2-yl)phenol] | ≤ 0.1

The next lines start with the values.

Row | IC50 [µM] | SMILES
12 | 0.1 to 0.5 | Cc1cnn(-c2ccc(-c3cc4nnn(C5CC(C)(C)NC(C)(C)C5)c4nn3)c(O)c2)c1 [Cpd 156, 5-(4-methyl-1H-pyrazol-1-yl)-2-(3-(2,2,6,6-tetramethylpiperidin-4-yl)-3H-[1,2,3]triazolo[4,5-c]pyridazin-6-yl)phenol]
13 | 0.1 to 0.5 | Cc1ccn(-c2ccc(-c3cc4nnn(C5CC(C)(C)NC(C)(C)C5)c4nn3)c(O)c2)n1 [Cpd 157, 5-(3-methyl-1H-pyrazol-1-yl)-2-(3-(2,2,6,6-tetramethylpiperidin-4-yl)-3H-[1,2,3]triazolo[4,5-c]pyridazin-6-yl)phenol]
14 | ≤ 0.1 | Cc1ncc(-c2ccc(-c3cc4nnn(C5CC(C)(C)NC(C)(C)C5)c4nn3)c(O)c2)o1 [Cpd 158, 5-(2-methyl-1,3-oxazol-5-yl)-2-[3-(2,2,6,6-tetramethylpiperidin-4-yl)-3H-[1,2,3]triazolo[4,5-c]pyridazin-6-yl]phenol]
15 | ≤ 0.1 | COc1ncnc(-c2ccc(-c3cc4nnn(C5CC(C)(C)NC(C)(C)C5)c4nn3)c(O)c2)n1 [Cpd 159, 5-(4-methoxy-1,3,5-triazin-2-yl)-2-(3-(2,2,6,6-tetramethylpiperidin-4-yl)-3H-[1,2,3]triazolo[4,5-c]pyridazin-6-yl)phenol]
16 | 0.1 to 0.5 | CC1(C)CC(n2nnc3cc(-c4ccc(-c5cnc6nccn6c5)cc4O)nnc32)CC(C)(C)N1 [Cpd 160, 5-(imidazo[1,2-a]pyrimidin-6-yl)-2-(3-(2,2,6,6-tetramethylpiperidin-4-yl)-3H-[1,2,3]triazolo[4,5-c]pyridazin-6-yl)phenol]
17 | ≤ 0.1 | CC1(C)CC(n2ncc3cc(-c4ccc(-c5c[nH]nc5F)cc4O)nnc32)CC(C)(C)N1 [Cpd 161, 5-(3-fluoro-1H-pyrazol-4-yl)-2-(1-(2,2,6,6-tetramethylpiperidin-4-yl)-1H-pyrazolo[3,4-c]pyridazin-5-yl)phenol]
18 | ≤ 0.1 | CC1(C)CC(n2nnc3cc(-c4ccc(-c5ccc6nccn6n5)cc4O)nnc32)CC(C)(C)N1 [Cpd 162, 5-(imidazo[1,2-b]pyridazin-6-yl)-2-(3-(2,2,6,6-tetramethylpiperidin-4-yl)-3H-[1,2,3]triazolo[4,5-c]pyridazin-6-yl)phenol]
19 | ≤ 0.1 | CC1(C)CC(n2nnc3cc(-c4ccc(-n5nccn5)cc4O)nnc32)CC(C)(C)N1 [Cpd 163, 2-[3-(2,2,6,6-tetramethylpiperidin-4-yl)-3H-[1,2,3]triazolo[4,5-c]pyridazin-6-yl]-5-(2H-1,2,3-triazol-2-yl)phenol]
20 | 1 to 3 | CC1(C)CC(n2ncc3cc(-c4ccc(-c5cncnc5)cc4O)nnc32)CC(C)(C)N1 [Cpd 167, 5-(pyrimidin-5-yl)-2-[1-(2,2,6,6-tetramethylpiperidin-4-yl)-1H-pyrazolo[3,4-c]pyridazin-5-yl]phenol]
21 | ≤ 0.1 | Cn1ccc(-c2ccc(-c3cc4cnn(C5CC(C)(C)NC(C)(C)C5)c4nn3)c(O)c2)n1 [Cpd 169, 5-(1-methyl-1H-pyrazol-3-yl)-2-[1-(2,2,6,6-tetramethylpiperidin-4-yl)-1H-pyrazolo[3,4-c]pyridazin-5-yl]phenol]

Reference: patent publication US11858941B2, “Heterocyclic and heteroaryl compounds for treating Huntington's disease” (PTC THERAPEUTICS, INC., priority 2018, dated 2024)
